{"source": "patent US20230165893A1", "about": "“TREATMENT OF VIRAL INFECTIONS” (SULFAGENIX, INC., priority 2020, published 2023)", "origin": "cited, not measured here", "settings": "pure elemental sulfur, stated as a contrast, no source given"}
{"compound": "S1SSSSSSS1", "note": "[alpha-elemental sulfur, elemental alpha sulfur]", "values": [{"measurement": "solubility in carbon disulfide (in words)", "result": "completely soluble"}]}
